Each compound was assayed on NCI-H1417 cells (assay: Cell growth suppression test, CellTiter-Glo Luminescent Cell Viability Assay). Settings: Homo sapiens, 240 h; NCI-H1417 cells treated for 10 days.
Format: cell-based
Experimental: Cell growth suppression effects of the synthesized compounds on NCI-H1417 cells were identified. The cells were treated with the synthesized compounds for 10 days. Then, in order to test the cell growth suppression, CellTiter-Glo Luminescent Cell Viability Assay (available from Promega, USA) was used. This test is to measure emission signals proportional to the number of ATPs based on a fixed amount of ATPs, which represents the presence of metabolically active cells, thereby determining the number of viable cells. The results are expressed as a GI50 value. As for a control, GSK2879552 (available from GlaxoSmithKline USA) was used.
`N#Cc1ccc(-c2cc(C(=O)N3CCC[C@@H](N)C3)nn2-c2ccc(C3CC3)cc2)cc1` [Example 1, (R)-4-(3-(3-aminopiperidine-1-carbonyl)-1-(4-cyclopropylphenyl)-1H-pyrazole-5-yl)benzonitrile] was tested, and the GI50 was 94 nM.
`CN[C@@H]1CCCN(C(=O)c2cc(-c3ccc(C#N)cc3)n(-c3ccc(C4CC4)cc3)n2)C1` [Example 2, (R)-4-(1-(4-cyclopropylphenyl)-3-(3-methylaminopiperidine-1-carbonyl)-1H-pyrazole-5-yl)benzonitrile] was tested, and the GI50 was 120 nM.
Work on `N#Cc1ccc(-c2cc(C(=O)N3CCC[C@@H](N)C3)nn2-c2ccc(C3CC3)cc2F)cc1` [Example 3, (R)-4-(3-(3-aminopiperidine-1-carbonyl)-1-(4-cyclopropyl-2-fluorophenyl)-1H-pyrazole-5-yl)benzonitrile] yielded a GI50 of 49 nM.
`CN[C@@H]1CCCN(C(=O)c2cc(-c3ccc(C#N)cc3)n(-c3ccc(C4CC4)cc3F)n2)C1` [Example 4, (R)-4-(1-(4-cyclopropyl-2-fluorophenyl)-3-(3-(methylamino)piperidine-1-carbonyl)-1H-pyrazole-5-yl)benzonitrile] showed a GI50 of 24 nM.
`N#Cc1ccc(-c2cc(C(=O)N3CCC[C@@H](N)C3)nn2-c2ccc(C3CC3)cc2F)cc1F` [Example 5, (R)-4-(3-(3-aminopiperidine-1-carbonyl)-1-(4-cyclopropyl-2-fluorophenyl)-1H-pyrazole-5-yl)-2-fluorobenzonitrile] showed a GI50 of 48 nM.
In the case of `N#Cc1ccc(-c2cc(C(=O)N3CCCC[C@@H](N)C3)nn2-c2ccc(C3CC3)cc2F)cc1F` [Example 8, (R)-4-(3-(3-aminoazepane-1-carbonyl)-1-(4-cyclopropyl-2-fluorophenyl)-1H-pyrazole-5-yl)-2-fluorobenzonitrile], the GI50 is reported as 101 nM.
Work on `N#Cc1ccc(-c2cc(C(=O)N3CCC[C@@H](N)C3)nn2-c2c(F)cc(C3CC3)cc2F)cc1F` [Example 10, (R)-4-(3-(3-aminopiperidine-1-carbonyl)-1-(4-cyclopropyl-2,6-difluorophenyl)-1H-pyrazole-5-yl)-2-fluorobenzonitrile] yielded a GI50 of 108 nM.
`CC(C)c1ccc(-n2nc(C(=O)N3CCC[C@@H](N)C3)cc2-c2ccc(C#N)cc2)cc1` [Example 35, (R)-4-(3-(3-aminopiperidine-1-carbonyl)-1-(4-isopropylphenyl)-1H-pyrazole-5-yl)benzonitrile] was tested, and the GI50 was 145 nM.
`CN[C@@H]1CCCN(C(=O)c2cc(-c3ccc(C#N)cc3)n(-c3ccc(C(C)C)cc3)n2)C1` [Example 36, (R)-4-(1-(4-isopropylphenyl)-3-(3-(methylamino)piperidine-1-carbonyl)-1H-pyrazole-5-yl) benzonitrile] showed a GI50 of 91 nM.
For `CC(C)c1ccc(-n2nc(C(=O)N3CCC[C@@H](N)C3)cc2-c2ccc(C#N)cc2)c(F)c1` [Example 37, (R)-4-(3-(3-aminopiperidine-1-carbonyl)-1-(2-fluoro-4-isopropylphenyl)-1H-pyrazole-5-yl) benzonitrile], the GI50 was 215 nM.
Compound `CC(C)c1ccc(-n2nc(C(=O)N3CCC[C@@H](N)C3)cc2-c2ccc(C#N)c(F)c2)c(F)c1` [Example 38, (R)-4-(3-(3-aminopiperidine-1-carbonyl)-1-(2-fluoro-4-isopropylphenyl)-1H-pyrazole-5-yl)-2-fluorobenzonitrile] has a GI50 of 79 nM.
With `CC(C)c1ccc(-n2nc(C(=O)N3CCCC[C@@H](N)C3)cc2-c2ccc(C#N)c(F)c2)c(F)c1` [Example 39, (R)-4-(3-(3-aminoazepane-1-carbonyl)-1-(2-fluoro-4-isopropylphenyl)-1H-pyrazole-5-yl)-2-fluorobenzonitrile] the GI50 was 139 nM.
`CC(C)(C)c1ccc(-n2nc(C(=O)N3CCC[C@@H](N)C3)cc2-c2ccc(C#N)cc2)cc1` [Example 40, (R)-4-(3-(3-aminopiperidine-1-carbonyl)-1-(4-(tert-butyl)phenyl)-1H-pyrazole-5-yl)benzonitrile] gave a GI50 of 226 nM.
`CN[C@@H]1CCCN(C(=O)c2cc(-c3ccc(C#N)cc3)n(-c3ccc(C(C)(C)C)cc3)n2)C1` [Example 41] was tested, and the GI50 was 126 nM.
`CC(C)(C)c1ccc(-n2nc(C(=O)N3CCC[C@@H](N)C3)cc2-c2ccc(C#N)cc2)c(F)c1` [Example 42, (R)-4-(3-(3-aminopiperidine-1-carbonyl)-1-(4-(tert-butyl)-2-fluorophenyl)-1H-pyrazole-5-yl)benzonitrile] showed a GI50 of 226 nM.
Compound `CC(C)(C)c1ccc(-n2nc(C(=O)N3CCC[C@@H](N)C3)cc2-c2ccc(C#N)c(F)c2)c(F)c1` [Example 43] has a GI50 of 69 nM.
In the case of `CC(C)(C)c1ccc(-n2nc(C(=O)N3CCCC[C@@H](N)C3)cc2-c2ccc(C#N)c(F)c2)c(F)c1` [Example 44], the GI50 is reported as 133 nM.
In the case of `CN(C)c1ccc(-n2nc(C(=O)N3CCC[C@@H](N)C3)cc2-c2ccc(C#N)cc2)cc1` [Example 53], the GI50 is reported as 102 nM.
`CN(C)c1ccc(-n2nc(C(=O)N3CCC[C@@H](N)C3)cc2-c2ccc(C#N)cc2)c(F)c1` [Example 54, (R)-4-(3-(3-aminopiperidine-1-carbonyl)-1-(4-(dimethylamino)-2-fluorophenyl)-1H-pyrazole-5-yl)benzonitrile] showed a GI50 of 84 nM.
With `N#Cc1ccc(-c2cc(C(=O)N3CCC[C@@H](N)C3)nn2-c2ccc(N3CCCC3)cc2F)cc1` [Example 57, (R)-4-(3-(3-aminopiperidine-1-carbonyl)-1-(2-fluoro-4-(pyrrolidine-1-yl)phenyl)-1H-pyrazole-5-yl)benzonitrile] the GI50 was 45 nM.
Work on `N#Cc1ccc(-c2cc(C(=O)N3CCC[C@@H](N)C3)nn2-c2ccc(N3CCCC3)cc2F)cc1F` [Example 58, (R)-4-(3-(3-aminopiperidine-1-carbonyl)-1-(2-fluoro-4-(pyrrolidine-1-yl)phenyl)-1H-pyrazole-5-yl)-2-fluorobenzonitrile] yielded a GI50 of 24 nM.
For `CN[C@@H]1CCCN(C(=O)c2cc(-c3ccc(C#N)c(F)c3)n(-c3ccc(N4CCCC4)cc3F)n2)C1` [Example 59, (R)-2-fluoro-4-(1-(2-fluoro-4-(pyrrolidine-1-yl)phenyl)-3-(3-(methylamino)piperidine-1-carbonyl)-1H-pyrazole-5-yl)benzonitrile], the GI50 was 9.7 nM.
In the case of `N#Cc1ccc(-c2cc(C(=O)N3CCCC[C@@H](N)C3)nn2-c2ccc(N3CCCC3)cc2F)cc1F` [Example 60, (R)-4-(3-(3-aminoazepane-1-carbonyl)-1-(2-fluoro-4-(pyrrolidine-1-yl)phenyl)-1H-pyrazole-5-yl)-2-fluorobenzonitrile], the GI50 is reported as 53 nM.
`N#Cc1ccc(-c2cc(C(=O)N3CCC[C@@H](N)C3)nn2-c2ccc(N3CC[C@@H](F)C3)cc2F)cc1F` [Example 61, 4-(3-((R)-3-aminopiperidine-1-carbonyl)-1-(2-fluoro-4-((R)-3-fluoropyrrolidine-1-yl)phenyl)-1H-pyrazole-5-yl)-2-fluorobenzonitrile] was tested, and the GI50 was 82 nM.
For `N#Cc1ccc(-c2cc(C(=O)N3CCC[C@@H](N)C3)nn2-c2ccc(N3CCC(F)(F)C3)cc2F)cc1F` [Example 63, (R)-4-(3-(3-aminopiperidine-1-carbonyl)-1-(4-(3,3-difluoropyrrolidine-1-yl)-2-fluorophenyl)-1H-pyrazole-5-yl)-2-fluorobenzonitrile], the GI50 was 33 nM.
`CN[C@@H]1CCCN(C(=O)c2cc(-c3ccc(C#N)c(F)c3)n(-c3ccc(N4CCC(F)(F)C4)cc3F)n2)C1` [Example 64, (R)-4-(1-(4-(3,3-difluoropyrrolidine-1-yl)-2-fluorophenyl)-3-(3-(methylamino)piperidine-1-carbonyl)-1H-pyrazole-5-yl)-2-fluorobenzonitrile] was tested, and the GI50 was 19 nM.
Compound `COC1CCN(c2ccc(-n3nc(C(=O)N4CCC[C@@H](N)C4)cc3-c3ccc(C#N)c(F)c3)c(F)c2)C1` (stereo partly drawn) [Example 65, 4-(3-((R)-3-aminopiperidine-1-carbonyl)-1-(2-fluoro-4-(3-methoxypyrrolidin-1-yl)phenyl)-1H-pyrazol-5-yl)-2-fluorobenzonitrile] has a GI50 of 58 nM.
`CN[C@@H]1CCCN(C(=O)c2cc(-c3ccc(C#N)c(F)c3)n(-c3ccc(N4CCC(OC)C4)cc3F)n2)C1` (stereo partly drawn) [Example 66, 2-fluoro-4-(1-(2-fluoro-4-(3-methoxypyrrolidine-1-yl)phenyl)-3-((R)-3-(methylamino)piperidine-1-carbonyl)-1H-pyrazole-5-yl)benzonitrile] gave a GI50 of 16 nM.
With `CO[C@H]1CCN(c2ccc(-n3nc(C(=O)N4CCC[C@@H](N)C4)cc3-c3ccc(C#N)c(F)c3)c(F)c2)C1` [Example 67, 4-(3-((R)-3-aminopiperidine-1-carbonyl)-1-(2-fluoro-4-((S)-3-methoxypyrrolidine-1-yl)phenyl)-1H-pyrazole-5-yl)-2-fluorobenzonitrile] the GI50 was 30 nM.
`CN[C@@H]1CCCN(C(=O)c2cc(-c3ccc(C#N)c(F)c3)n(-c3ccc(N4CC[C@H](OC)C4)cc3F)n2)C1` [Example 68, 2-fluoro-4-(1-(2-fluoro-4-((S)-3-methoxypyrrolidine-1-yl)phenyl)-3-((R)-3-(methylamino)piperidine-1-carbonyl)-1H-pyrazole-5-yl)benzonitrile] gave a GI50 of 6.8 nM.
`CO[C@@H]1CCN(c2ccc(-n3nc(C(=O)N4CCC[C@@H](N)C4)cc3-c3ccc(C#N)c(F)c3)c(F)c2)C1` [Example 69, 4-(3-((R)-3-aminopiperidine-1-carbonyl)-1-(2-fluoro-4-((R)-3-methoxypyrrolidine-1-yl)phenyl)-1H-pyrazole-5-yl)-2-fluorobenzonitrile] gave a GI50 of 38 nM.
Compound `CN[C@@H]1CCCN(C(=O)c2cc(-c3ccc(C#N)c(F)c3)n(-c3ccc(N4CC[C@@H](OC)C4)cc3F)n2)C1` [Example 70, 2-fluoro-4-(1-(2-fluoro-4-((R)-3-methoxypyrrolidine-1-yl)phenyl)-3-((R)-3-(methylamino)piperidine-1-carbonyl)-1H-pyrazole-5-yl)benzonitrile] has a GI50 of 18 nM.
